In US20260028352A1, “MACROCYCLIC IMIDAZO [1,2-B] PYRIDAZINE DERIVATIVE, PREPARATION METHOD THEREFOR, AND USE THEREOF” (SUZHOU LANGRUI BIOPHARMACEUTICAL CO., LTD., priority 2022, published 2026):

Test system: Ba/F3-TPM3-NTRK1-G667C cells
Experiment: Growth inhibition of Ba/F3-TPM3-NTRK1-G667C cells (Cell Titer-Glo)
Type: cell-based
Details: 72 hours, CTG; read-out: inhibitory activity IC50 Ba/F3-TPM3-NTRK1-G667C
Protocol: Then the solutions were subjected to a gradient dilution with DMSO: a clean, sterile V-bottom 96-well microplate was placed in the biological safety cabinet. First, 4 μL of DMSO was added to well B2 and 10 μL of DMSO was added to wells B3-B11 respectively; Next, 6 μL of the 10 mM solution was added to well B2. The microplate was pipetted up and down 10 times for mixing. […] Mixing was performed by pipetting up and down 10 times. The solution was diluted in order until well B10. only DMSO was added to well B11 (no compound).
6× Compound Solution Preparation (6-fold dilution, × represents dilution factor): (Initial final concentration: 10 μM), a clean, sterile V-bottom 96-well microplate was placed in the biological safety cabinet. 99 μL of cell culture medium was added to each well from B2 to G11. By using a 12-channel pipettor, 1 μL of the compound solution prepared in the previous step was added into the corresponding wells. The solutions were pipetted up and down 10 times to mix the solutions. The highest concentration of compound in this step was 60 μM.
Treatment of Cells: the above-prepared cell culture plate was taken out of the incubator. 20 μL of compound solution from each well was added to the corresponding cell culture wells. The lowest pipetting speed was used and touching the bottom of the plate was avoided. The culture plate was gently shaked to mix the compound solution, then the plate was returned to the incubator for further culture for 72 hours.
The highest treatment concentration of the compound was 10 μM. After 72 hours of treatment, the Cell Titer-Glo (CTG) assay was performed. First, the cell culture plate was removed from the CO2 incubator and allowed to stand at room temperature for 30 minutes to ensure uniform temperature of the plate. The pre-prepared Cell Titer-Glo reagent (following the manufacturer's instructions) was taken and allowed to stand at room temperature to thaw. 60 μL of Cell Titer-Glo reagent was added to each well containing cells. The cells were incubated on a horizontal shaker in a dark place at 225 rpm for 1 hour at room temperature. Then, a Tecan Spark microplate reader was used to read the plate using chemiluminescence according to the manufacturer's instructions.

Compound	IC50 [nM]
CC1Nc2ccc3ncc(n3n2)-c2cc(ccn2)OCc2ccc(F)cc21 (stereo not drawn) [Example I-13, (E)-5^4-fluoro-6-methyl-3-oxa-7-aza-1(3,6)-imidazo[1,2-b]pyridazina-2(2,4)-pyridina-5(1,2)-benzenacycloheptaphane]	< 100
C[C@@H]1Cc2ccnc(c2)-c2cnc3ccc(nn23)N[C@H](C)c2cc(F)ccc2O1 [Example I-34, (4R,7R,E)-5^5-fluoro-4,7-dimethyl-6-oxa-3-aza-2(3,6)-imidazo[1,2-b]pyridazina-1(2,4)-pyridina-5(1,2)-benzenacyclooctaphane]	< 100
C[C@@H]1Cc2cc(ncn2)-c2cnc3ccc(nn23)N[C@H](C)c2cc(F)ccc2O1 [Example I-35, (4R,7R,E)-5^5-fluoro-4,7-dimethyl-6-oxa-3-aza-2(3,6)-imidazo[1,2-b]pyridazina-1(4,6)-pyrimidina-5(1,2)-benzenacyclooctaphane]	< 100
C[C@@H]1Cc2ccnc(c2)-c2cnc3ccc(nn23)N[C@H](C)c2cc(F)cnc2O1 [Example I-36, (4R,7R,E)-5^5-fluoro-4,7-dimethyl-6-oxa-3-aza-2(3,6)-imidazo[1,2-b]pyridazina-1(2,4), 5(3,2)-dipyridinacyclooctaphane]	< 100
C[C@@H]1Cc2ccnc(c2)-c2cnc3ccc(nn23)N2CCC[C@@H]2c2cc(F)ccc2O1 [Example I-37, (3^2R,6R,E)-4^5-fluoro-6-methyl-5-oxa-2(3,6)-imidazo[1,2-b]pyridazina-1(2,4)-pyridina-3(1,2)-pyrrolidina-4(1,2)-benzenacycloheptaphane]	< 100
C[C@@H]1Cc2ccnc(c2)-c2cnc3ccc(nn23)N2CCC[C@@H]2c2cc(F)cnc2O1 [Example I-38, (3^2R,6R,E)-4^5-fluoro-6-methyl-5-oxa-2(3,6)-imidazo[1,2-b]pyridazina-1(2,4),4(3,2)-dipyridina-3(1,2)-pyrrolidinacycloheptaphane]	< 100
C[C@H]1Nc2ccc3ncc(n3n2)-c2cc(ccn2)N2CC[C@H](C2)Oc2ccc(F)cc21 [Example I-41, (3^3R,6R,E)-5^4-fluoro-6-methyl-4-oxa-7-aza-1(3,6)-imidazo[1,2-b]pyridazina-2(2,4)-pyridina-3(1,3)-pyrrolidina-5(1,2)-benzenacycloheptaphane]	< 100
C[C@H]1Nc2ccc3ncc(n3n2)-c2cc(ccn2)N2CC[C@@H](C2)Oc2ccc(F)cc21 [Example I-42, (3^3S,6R,E)-5^4-fluoro-6-methyl-4-oxa-7-aza-1(3,6)-imidazo[1,2-b]pyridazina-2(2,4)-pyridina-3(1,3)-pyrrolidina-5(1,2)-benzenacycloheptaphane]	< 100
C[C@H]1Nc2ccc3ncc(n3n2)-c2cc(ccn2)N2CCC[C@H](C2)Oc2ccc(F)cc21 [Example I-43, (3^3R,6R,E)-5^4-fluoro-6-methyl-4-oxa-7-aza-1(3,6)-imidazo[1,2-b]pyridazina-2(2,4)-pyridina-3(1,3)-piperidina-5(1,2)-benzenacycloheptaphane]	< 100
C[C@H]1Nc2ccc3ncc(n3n2)-c2cc(ccn2)N2CCC[C@@H](C2)Oc2ccc(F)cc21 [Example I-44, (3^3S,6R,E)-5^4-fluoro-6-methyl-4-oxa-7-aza-1(3,6)-imidazo[1,2-b]pyridazina-2(2,4)-pyridina-3(1,3)-piperidina-5(1,2)-benzenacycloheptaphane]	< 100
Fc1ccc2c(c1)[C@H]1CCCN1c1ccc3ncc(n3n1)-c1cc(ccn1)[C@H]1CCC[C@H]1O2 [Example I-45, (8aR,11aR,16bR,E)-15-fluoro-8a,10,11,11a,16b,17,18,19-octahydro-9H-1,21-etheno-4,8-(metheno)benzo[b]cyclopenta[o]imidazo[1,5-h]pyrrolo[2,1-d][1]oxa[5,7,8,11]tetraazacyclohexadecine]	< 100
Fc1ccc2c(c1)[C@H]1CCCN1c1ccc3ncc(n3n1)-c1cc(ccn1)[C@@H]1CCC[C@H]1O2 [Example I-46, (8aS,11aR,16bR,E)-15-fluoro-8a,10,11,11a,16b,17,18,19-octahydro-9H-1,21-etheno-4,8-(metheno)benzo[b]cyclopenta[o]imidazo[1,5-h]pyrrolo[2,1-d][1]oxa[5,7,8,11]tetraazacyclohexadecine]	< 100
Fc1ccc2c(c1)C1(CC1)Nc1ccc3ncc(n3n1)-c1cc(ccn1)CO2 [Example I-47, (E)-4′-fluorospiro[cyclopropane-1,6′-4-oxa-7-aza-1(3,6)-imidazo[1,2-b]pyridazina-2(2,4)-pyridina-5(1,2)-benzenacycloheptaphane]]	< 100
CC1(C)Nc2ccc3ncc(n3n2)-c2cc(ccn2)COc2ccc(F)cc21 [Example I-48, (E)-5^4-fluoro-6,6-dimethyl-4-oxa-7-aza-1(3,6)-imidazo[1,2-b]pyridazina-2(2,4)-pyridina-5(1,2)-benzenacycloheptaphane]	< 100
Fc1cnc2c(c1)[C@H]1CCCN1c1ccc3ncc(n3n1)-c1cc(ccn1)CO2 [Example I-51, (14bR,E)-13-fluoro-14b,15,16,17-tetrahydro-9H-1,19-etheno-4,8-(metheno)imidazo[1,5-h]pyrido[2,3-b]pyrrolo[2,1-d][1]oxa[5,7,8,11]tetraazacyclopentadecine]	< 100
Fc1ccc2c(c1)[C@H]1CCCN1c1ccc3ncc(n3n1)-c1cc(ccn1)CCO2 [Example I-53, (3^2R,E)-4^5-fluoro-5-oxa-2(3,6)-imidazo[1,2-b]pyridazina-1(2,4)-pyridina-3(1,2)-pyrrolidina-4(1,2)-benzenacycloheptaphane]	< 100
Fc1cnc2c(c1)[C@H]1CCCN1c1ccc3ncc(n3n1)-c1cc(ccn1)CCO2 [Example I-55, (3^2R,E)-4^5-fluoro-5-oxa-2(3,6)-imidazo[1,2-b]pyridazina-1(2,4),4(3,2)-dipyridina-3(1,2)-pyrrolidinacycloheptaphane]	< 100
Fc1ccc2c(c1)[C@H]1CCCN1c1ccc3ncc(n3n1)-c1cc(ncn1)CO2 [Example I-57, (14bR,E)-13-fluoro-14b,15,16,17-tetrahydro-9H-1,19-etheno-4,8-(metheno)benzo[n]imidazo[5,1-h]pyrrolo[1,2-l][1]oxa[4,6,9,10,12]pentaazacyclopentadecine]	< 100
Fc1cnc2c(c1)[C@H]1CCCN1c1ccc3ncc(n3n1)-c1cc(ncn1)CO2 [Example I-59, (14bR,E)-13-fluoro-14b,15,16,17-tetrahydro-9H-1,19-etheno-4,8-(metheno)imidazo[5,1-h]pyrido[3,2-n]pyrrolo[1,2-l][1]oxa[4,6,9,10,12]pentaazacyclopentadecine]	< 100
Fc1ccc2c(c1)[C@H]1CCCN1c1ccc3ncc(n3n1)-c1nccc(n1)CO2 [Example I-61, (14bR,E)-13-fluoro-14b,15,16,17-tetrahydro-9H-4,8-(azeno)-1,19-etheno benzo[b]imidazo[1,5-h]pyrrolo[2,1-d][1]oxa[5,7,8,11]tetraazacyclopentadecine]	< 100
Fc1cnc2c(c1)[C@H]1CCCN1c1ccc3ncc(n3n1)-c1nccc(n1)CO2 [Example I-63, (14bR,E)-13-fluoro-14b,15,16,17-tetrahydro-9H-4,8-(azeno)-1,19-etheno imidazo[1,5-h]pyrido[2,3-b]pyrrolo[2,1-d][1]oxa[5,7,8,11]tetraazacyclopentadecine]	< 100
